Values joined by “and” are separate entries in the source; they are usually repeats but may differ in a detail not shown here. Identical values can stand only once. Like-named read-outs stand apart in the source and are kept apart here.
Tests used:
[1] = tested on: MDA-MB-453 Her2 overexpressing human breast cancer cells; experiment: MTT cell proliferation assay on MDA-MB-453 cells; type: cell-based; conditions: for Proliferation (relative to control = 1) / % proliferation: MDA-MB-453, 96 h
ER-negative SUM149 cells = experiment: MTT cell proliferation assay on SUM149 cells; type: cell-based; conditions: read-out: IC50 growth inhibition
Procedure: (§1) MDA-MB-453 (ER negative, Her2 overexpressing), MDA-MB-468 (triple negative) and MCF7 (ER positive, Her2 low) cells, HT29 (p53 positive human colon cancer cells) (ATCC, Manassas, Va.) were grown in Dulbecco's Modified Eagle's medium (DMEM) (Gibco BRL Life Technologies, Inc., Rockville, Md.) containing 10% (v/v) fetal bovine serum (FBS) (Gibco BRL) at 37° C., 5% C02. SUM 149 (Her2 overexpressing, ER low) (the gift of Dr. R. Parsons, Columbia University Medical Center, New York, N.Y.) were cultivated in Ham's F-12 medium with 10% FBS. MCF7 and MCF7/Her2-18 (MCF7 cells transfected with a full length Her2 cDNA coding region, 45-fold increase Her2) were the kind gift of Dr. Dennis Slamon (Los Angeles, Calif.). These cells were maintained in RPMI supplemented with 10% FBS plus glutamine (1%) and PSF (1%) (Gibco, Rockville Md.).
(§2) MTT assay: the MTT {3-(4,5-dimethyl-2-thiazol)-2,5-diphenyl-2H tetrazolilum bromide} (Dojindo; Tokyo, Japan) cell proliferation assay system (Roche Diagnostic, Mannheim, Germany) was used to determine the sensitivity of the various cell lines to agents. Cells were seeded at 1×10^4 cells/well in 96-well plates and allowed to attach for 24 h. […] The cells were treated for 96 or 120 h, after which they were incubated with MTT reagents and the absorbance read at 650 and 575 nm. For cell growth assays, the data are expressed as mean+/−standard deviation. […]

[2] = tested on: MDA-MB-468 triple negative breast cancer cells; experiment: MTT cell proliferation assay on MDA-MB-468 cells; type: cell-based, human; conditions: for IC50: read-out: IC50 growth inhibition
Procedure: as §1
(§3) MTT assay: the MTT {3-(4,5-dimethyl-2-thiazol)-2,5-diphenyl-2H tetrazolilum bromide} (Dojindo; Tokyo, Japan) cell proliferation assay system (Roche Diagnostic, Mannheim, Germany) was used to determine the sensitivity of the various cell lines to agents. Cells were seeded at 1×10^4 cells/well in 96-well plates and allowed to attach for 24 h. The medium was replaced with fresh medium containing DMSO or compound. The cells were treated for 96 or 120 h, after which they were incubated with MTT reagents and the absorbance read at 650 and 575 nm. For cell growth assays, the data are expressed as mean+/−standard deviation. Control and treated cells were compared using the student's t-test (p<0.05).
To determine the Combination Index (CI), cells were treated with all combinations of 4 or 5 concentrations of each of the agents tested and a solvent control. The results of the MTT assay were analyzed for possible synergistic effects using the median effect principle. Variable ratios of drugs were employees and mutually exclusive equations were assumed.

[3] = tested on: MCF7 (ER positive, Her2 low) cells; experiment: MTT cell proliferation assay on MCF7 cells; type: cell-based; conditions: Homo sapiens, read-out: IC50 growth inhibition
Procedure: as §1, §2

MDA-MB-468 cells = experiment: Real-time RT-PCR of specific mRNAs in MDA-MB-468 cells; type: cell-based, human; conditions: for increase in expression of RNA of CDKN1A: 4 μg/ml, MDA-MB-468
Procedure: (§4) Real-time RT-PCR analysis was performed on 2 technical replicates of at least 2 biological sample replicates.
(§5) Real-time quantitative RT-PCR methods were used to determine the nature of the RNA induced by treatment with CA, using the Real Time PCR machine Stratagene MX3005P QPCR System.
(§6) Real-time RT-PCR analysis was performed to examine the mode of action of CA. In MDA-MB-468 cells, CA at 4 μg/ml induced an increase in expression of RNA of the tumor suppressor gene CDKN1A; for MDA-MB-468 cells (6 h: 1.51-logfold; 24 h: 1.61-logfold) (FIG. 3A); for SUM149 cells (6 h: 2.7-logfold). CA had little effect on the expression of the tumor suppressor gene BRCA1.

SUM149 cells = experiment: Real-time RT-PCR of specific mRNAs in SUM149 cells; type: cell-based; conditions: 4 μg/ml, 6 h
Procedure: as §4, §5, §6

[4] = tested on: HT29 human colon cancer cells; experiment: Proliferation assay (MTT) on HT29 cells; type: cell-based; conditions: 1 μg/ml, HT29, 96 h
Procedure: The HT29 cells were maintained in McCoy's Media containing 10% (v/v) fetal bovine serum (FBS) (Gibco BRL) at 37° C., 5% C02.
as §3
HT29 (p53 positive human colon cancer cells), as well as MDA-MB-453 Her2 overexpressing ER-negative human breast cancer cells are treated with increasing concentrations of the liposome carnosic acid complex and carnosic acid.
Cells were exposed to increasing concentrations of agents for 96 h and the number of viable cells determined by the MTT assay.

[5] = tested on: SKOV3 (Her2 overexpressing) human ovarian cancer cells; experiment: MTT cell proliferation assay on SKOV3 cells; type: cell-based; conditions: SKOV3, 96 h
Procedure: SKOV3 (Her2 overexpressing) ovarian cancer cells (ATCC, Manassas, Va.), were grown in McCoy's media (Gibco BRL Life Technologies, Inc., Rockville, Md.) containing 10% (v/v) fetal bovine serum (FBS) (Gibco BRL) at 37° C., 5% C02, plus Penn-Strep (Sigma).
The MTT [3-(4,5-dimethyl-2-thiazol)-2,5-diphenyl-2H tetrazolilum bromide] (Dojindo; Tokyo, Japan) cell proliferation assay system (Roche Diagnostic, Mannheim, Germany) was used to determine the sensitivity of the cell lines to agents. Cells were seeded at 1×10^4 cells/well in 96-well plates and allowed to attach for 24 h. The medium was replaced with fresh medium containing DMSO or compound. The cells were treated for 96 h, after which the media was replaced with fresh media; the cells were incubated with MTT reagents and the absorbance read at 650 and 575 nm. The 650 reading was subtracted from the 575 reading to correct for background absorbance.

[6] = MDA-MB-468 cells, MTT assay, listed as CA

Structure (SMILES): CC(C)c1cc2c(c(O)c1O)[C@@]1(C(=O)O)CCCC(C)(C)[C@@H]1CC2 [carnosic acid]
- inhibition of cell growth ([1]; 0.5 μg/ml, 96 h, MTT): no inhibition
- Proliferation (relative to control = 1) ([1]; 0.5 ug/ml, MTT): 1.07
- % proliferation ([1]; 0.5 μg/ml, MTT): 107%
- Proliferation (relative to control = 1) ([1]; 2 ug/ml, MTT): 0.989
- % proliferation ([1]; 2 μg/ml, MTT): 98.9%
- Proliferation (relative to control = 1) ([1]; 5 ug/ml, MTT): 0.915
- % proliferation ([1]; 5 μg/ml, MTT): 91.5%
- Proliferation (relative to control = 1) ([1]; 10 ug/ml, MTT): 0.758
- Proliferation (relative to control = 1) ([1]; 20 ug/ml, MTT): 0.573
- IC50 ([1]; Homo sapiens, MDA-MB-453 cells, MTT assay, read-out: IC50, concentration that caused 50% inhibition of cell proliferation): 3 µg/mL and 7 µM
- IC50 (ER-negative SUM149 cells): 1.7 µg/mL and 5.1 µM
- IC50 ([2]; Homo sapiens, MDA-MB-468, MDA-MB-468 cells, MTT assay): 2 µg/mL and 6 µM
- viability at 6 µM ([2]; Homo sapiens, MDA-MB-468, CA 2 μg/ml (6 μM) alone, read-out: percent viable cells): 89.4%
- IC50 growth inhibition [2, 6]: 3 µg/mL
- IC50 [2, 6]: 9 µM
- IC50 [3]: 25 µg/mL and 75 µM
- increase in expression of RNA of CDKN1A (MDA-MB-468 cells; 6 h): 1.51 logfold
- increase in expression of RNA of CDKN1A (MDA-MB-468 cells; 24 h): 1.61 logfold
- effect on expression of the vitamin D receptor (MDA-MB-468 cells; 6 h, real-time RT-PCR): slight increase in expression
- effect on expression of BRCA1 (MDA-MB-468 cells; real-time RT-PCR): little effect
- effect on expression of CYP24A1 (MDA-MB-468 cells; real-time RT-PCR): significant increase in expression
- increase in expression of RNA of CDKN1A (SUM149 cells): 2.7 logfold
- % proliferation [4]: 99.3%
- % cell proliferation ([5]; 5 μg/ml): 105.3%
- % cell proliferation ([5]; 10 μg/ml): 56.7%
- % cell proliferation ([5]; 15 μg/ml): 8.1%
- % cell proliferation ([5]; 20 μg/ml): 6.7%
- IC50 ([5]; Homo sapiens, SK-OV-3, MTT, read-out: IC50, concentration that caused 50% inhibition of cell growth): ~10.5 µg/mL and ~31.6 µM

— US9801844B2, “Methods and compositions for the treatment of cancer” (priority 2012, dated 2017)
